# Reference: ChEMBL document CHEMBL4052776, “Discovery of 3-morpholino-imidazole[1,5-a]pyrazine BTK inhibitors for rheumatoid arthritis” (Bioorg Med Chem Lett, 2017)
# pIC50: −log10 of the molar value.
# What was measured:
# [1] = biological target: Tyrosine-protein kinase BTK (Homo sapiens, UniProt Q06187); experiment: Inhibition of recombinant full-length His6-tagged BTK (unknown origin) expressed in baculovirus infected Sf9 cells using biotinylated A5 peptide as substrate preincubated for 60 mins followed by substrate addition measured after 120 mins by LANCE TR-FRET assay
# Sequence of Tyrosine-protein kinase BTK (Q06187 whole entry): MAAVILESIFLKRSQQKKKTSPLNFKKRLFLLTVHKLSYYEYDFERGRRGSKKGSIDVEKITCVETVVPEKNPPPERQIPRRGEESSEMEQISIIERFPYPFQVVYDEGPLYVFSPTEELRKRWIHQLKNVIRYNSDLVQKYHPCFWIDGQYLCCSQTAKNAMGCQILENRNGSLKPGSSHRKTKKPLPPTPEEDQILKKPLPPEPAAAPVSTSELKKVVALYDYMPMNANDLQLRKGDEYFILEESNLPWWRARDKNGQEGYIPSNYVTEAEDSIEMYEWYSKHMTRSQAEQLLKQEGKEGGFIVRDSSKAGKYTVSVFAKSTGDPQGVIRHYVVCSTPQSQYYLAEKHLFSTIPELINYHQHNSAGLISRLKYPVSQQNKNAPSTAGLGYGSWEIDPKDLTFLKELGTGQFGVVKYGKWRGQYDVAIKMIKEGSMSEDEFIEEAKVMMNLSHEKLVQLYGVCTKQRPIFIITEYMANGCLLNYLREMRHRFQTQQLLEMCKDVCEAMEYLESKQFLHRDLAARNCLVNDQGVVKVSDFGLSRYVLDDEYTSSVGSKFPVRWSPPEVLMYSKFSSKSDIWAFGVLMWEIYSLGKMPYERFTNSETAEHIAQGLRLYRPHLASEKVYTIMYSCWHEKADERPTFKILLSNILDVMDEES
# Homo sapiens [2] = species: Homo sapiens; experiment: Selectivity ratio of IC50 for SRMS (unknown origin) to IC50 for BTK (unknown origin)
# Homo sapiens [3] = species: Homo sapiens; experiment: Selectivity ratio of IC50 for FGR (unknown origin) to IC50 for BTK (unknown origin)
# [4] = Half life in dog at 2 mg/kg; type: ADME, organism-based, Canis lupus familiaris; conditions: in vivo
# Homo sapiens [5] = species: Homo sapiens; experiment: Selectivity ratio of IC50 for YES1 (unknown origin) to IC50 for BTK (unknown origin)
# [6] = biological target: Tyrosine-protein kinase Fyn (Homo sapiens, UniProt P06241); experiment: Inhibition of FYN (unknown origin)
# Sequence of Tyrosine-protein kinase Fyn (P06241 whole entry): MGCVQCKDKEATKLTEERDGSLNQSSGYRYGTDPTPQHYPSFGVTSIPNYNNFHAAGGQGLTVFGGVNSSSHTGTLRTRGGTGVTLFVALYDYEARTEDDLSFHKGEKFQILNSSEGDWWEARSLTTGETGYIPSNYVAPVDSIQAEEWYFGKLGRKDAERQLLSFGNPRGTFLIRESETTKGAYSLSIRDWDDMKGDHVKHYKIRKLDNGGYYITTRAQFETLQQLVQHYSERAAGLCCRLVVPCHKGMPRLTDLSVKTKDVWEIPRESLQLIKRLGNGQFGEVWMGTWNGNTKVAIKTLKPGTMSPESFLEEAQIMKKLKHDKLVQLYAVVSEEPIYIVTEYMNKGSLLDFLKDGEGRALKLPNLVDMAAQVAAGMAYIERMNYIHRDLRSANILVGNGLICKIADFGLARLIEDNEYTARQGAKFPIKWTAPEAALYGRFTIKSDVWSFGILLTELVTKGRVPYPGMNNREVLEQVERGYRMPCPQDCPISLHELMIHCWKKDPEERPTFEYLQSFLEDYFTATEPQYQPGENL
# [7] = biological target: Protein-tyrosine kinase 6 (Homo sapiens, UniProt Q13882); experiment: Inhibition of PTK6 (unknown origin)
# Sequence of Protein-tyrosine kinase 6 (Q13882 whole entry): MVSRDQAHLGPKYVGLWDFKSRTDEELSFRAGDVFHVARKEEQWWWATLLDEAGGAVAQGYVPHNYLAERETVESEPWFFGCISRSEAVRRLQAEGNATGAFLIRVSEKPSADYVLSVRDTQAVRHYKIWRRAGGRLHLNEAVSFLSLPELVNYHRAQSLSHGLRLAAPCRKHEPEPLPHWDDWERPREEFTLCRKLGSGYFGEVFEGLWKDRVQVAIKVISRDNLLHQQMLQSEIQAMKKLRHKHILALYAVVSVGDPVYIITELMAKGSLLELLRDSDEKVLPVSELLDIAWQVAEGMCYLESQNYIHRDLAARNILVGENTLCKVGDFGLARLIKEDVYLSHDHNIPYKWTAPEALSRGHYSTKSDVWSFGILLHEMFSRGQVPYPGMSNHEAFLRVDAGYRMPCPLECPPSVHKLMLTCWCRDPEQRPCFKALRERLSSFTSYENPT
# Homo sapiens [8] = species: Homo sapiens; experiment: Selectivity ratio of IC50 for FRK (unknown origin) to IC50 for BTK (unknown origin)
# [9] = Half life in rat at 10 mg/kg; type: ADME, organism-based; conditions: in vivo
# Homo sapiens [10] = species: Homo sapiens; experiment: Selectivity ratio of IC50 for SRC (unknown origin) to IC50 for BTK (unknown origin)
# Homo sapiens [11] = species: Homo sapiens; experiment: Selectivity ratio of IC50 for LYNB (unknown origin) to IC50 for BTK (unknown origin)
# [12] = Oral bioavailability in dog at 2 mg/kg; type: ADME, organism-based, Canis lupus familiaris; conditions: in vivo
# [13] = biological target: Tyrosine-protein kinase Yes (Homo sapiens, UniProt P07947); experiment: Inhibition of YES1 (unknown origin)
# Sequence of Tyrosine-protein kinase Yes (P07947 whole entry): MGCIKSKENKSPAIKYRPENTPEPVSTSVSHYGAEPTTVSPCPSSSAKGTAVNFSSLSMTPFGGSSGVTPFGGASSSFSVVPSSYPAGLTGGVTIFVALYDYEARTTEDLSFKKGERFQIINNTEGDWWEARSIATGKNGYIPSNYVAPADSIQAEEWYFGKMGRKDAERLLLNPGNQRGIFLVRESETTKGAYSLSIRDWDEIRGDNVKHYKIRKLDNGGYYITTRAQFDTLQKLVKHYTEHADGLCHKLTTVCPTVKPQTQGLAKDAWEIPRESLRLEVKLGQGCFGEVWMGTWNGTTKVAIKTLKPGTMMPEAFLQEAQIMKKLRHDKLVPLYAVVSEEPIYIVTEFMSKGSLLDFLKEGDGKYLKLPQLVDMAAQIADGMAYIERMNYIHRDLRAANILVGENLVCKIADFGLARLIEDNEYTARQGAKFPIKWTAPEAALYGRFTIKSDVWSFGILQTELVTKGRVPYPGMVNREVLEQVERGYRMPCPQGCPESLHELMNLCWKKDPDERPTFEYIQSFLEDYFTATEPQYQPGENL
# [14] = Oral bioavailability in rat at 10 mg/kg; type: ADME, organism-based; conditions: in vivo
# [15] = biological target: Proto-oncogene tyrosine-protein kinase Src (Homo sapiens, UniProt P12931); experiment: Inhibition of SRC (unknown origin)
# Sequence of Proto-oncogene tyrosine-protein kinase Src (P12931 2-536 limits assumed): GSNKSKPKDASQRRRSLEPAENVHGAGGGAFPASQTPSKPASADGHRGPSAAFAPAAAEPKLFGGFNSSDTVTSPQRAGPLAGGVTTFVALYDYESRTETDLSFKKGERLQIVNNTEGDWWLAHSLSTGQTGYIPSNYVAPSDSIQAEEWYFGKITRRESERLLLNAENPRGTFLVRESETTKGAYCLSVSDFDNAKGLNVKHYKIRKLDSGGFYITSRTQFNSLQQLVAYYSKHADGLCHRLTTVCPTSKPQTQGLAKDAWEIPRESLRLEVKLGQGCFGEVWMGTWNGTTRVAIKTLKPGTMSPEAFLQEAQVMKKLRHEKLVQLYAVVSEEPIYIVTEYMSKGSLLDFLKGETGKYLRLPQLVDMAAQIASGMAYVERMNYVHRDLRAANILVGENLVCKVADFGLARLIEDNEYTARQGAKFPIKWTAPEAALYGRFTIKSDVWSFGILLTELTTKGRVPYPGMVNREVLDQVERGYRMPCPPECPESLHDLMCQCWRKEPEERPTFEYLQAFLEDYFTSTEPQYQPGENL
smiles,measurement,setting,value
CC(C)C(=O)N1CCO[C@@H](c2nc(-c3ccc(C(=O)Nc4cc(C(F)(F)F)ccn4)cc3F)c3c(N)nccn23)C1,pIC50,[1],9.36 to 9.40
same,Ratio IC50,Homo sapiens [2],234
same,Ratio IC50,Homo sapiens [3],610
same,half-life,[4],3.9 h
same,Ratio IC50,Homo sapiens [5],605
same,pIC50,[6],5.72
same,pIC50,[7],6.76
same,Ratio IC50,Homo sapiens [8],1600
same,half-life,[9],2.3 h
same,Ratio IC50,Homo sapiens [10],1160
same,Ratio IC50,Homo sapiens [11],2380
same,bioavailability,[12],89%
same,pIC50,[13],6.58
same,bioavailability,[14],87%
same,pIC50,[15],6.29
